Measurements taken from patent US20070292906A1, “ASSAY FOR MEASURING ACYLTRANSFERASE ACTIVITY” (Bristol-Myers Squibb Company, priority 2006, published 2007).

Tests used:
human MGAT3 = target: T1, human MGAT3 (Homo sapiens, UniProt Q86VF5); assay: substrate concentration titration in TLC assay, MGAT3; assay type: biochemical; details: Michaelis Menton fit, duplicate
T1 construct: made in house; host or cells: Sf9 insect cells (baculovirus), used as membrane extracts
T1 sequence (Q86VF5 1-341): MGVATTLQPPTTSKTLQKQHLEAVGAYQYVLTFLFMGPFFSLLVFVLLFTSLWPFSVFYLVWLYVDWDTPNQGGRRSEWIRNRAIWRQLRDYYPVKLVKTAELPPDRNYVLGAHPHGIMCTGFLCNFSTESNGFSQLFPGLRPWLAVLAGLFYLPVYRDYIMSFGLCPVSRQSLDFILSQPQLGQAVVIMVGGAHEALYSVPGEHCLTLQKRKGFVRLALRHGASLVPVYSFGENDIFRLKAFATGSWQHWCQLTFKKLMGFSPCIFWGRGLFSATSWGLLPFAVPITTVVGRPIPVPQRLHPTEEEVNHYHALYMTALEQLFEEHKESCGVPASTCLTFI
Description: (§1) The data shown in FIG. 1B correspond to a TLC plate assay and various substrates that could be used in the assay. Aliquots of membrane extracts (30 μg) derived from either wild type baculovirus infected Sf9 cells (WT) (lanes 4,5) infected with recombinant human DGAT1 baculovirus (DGAT1) (lanes 6-8), or with recombinant human MGAT3 baculovirus (MGAT3) (lanes 1-3), were subjected to enzyme reactions in Buffer A (150 mM potassium phosphate buffer, pH 7.4) with 50 μM [^14C]oleoyl-CoA (40,000 d.p.m./nmol specific activity) as the acyl donor, and 100 μM 1,2-dioleoylglycerol (DOG), or 2-monooleoylglycerol (2-MOG) as the acyl acceptor (delivered by acetone, final vehicle concentration at 2%).
(§2) Assays were carried out for 10 minutes as described in (Cheng et al., Biochem J. 2001 Nov. 1;359 (Pt 3):707-14.). The products were resolved by TLC in a solvent comprising hexane: ether: acetic acid in a ration of 170:30:1, respectively. The products were visualized by a Phosphoimage exposure. […]
(§3) Briefly, substrate efficiency was determined from results obtained using a TLC acyltransferase assay. […] The enzymatic products were quantified and the kinetic parameters Vmax and Km were derived using the Michaelis Menton Equation as applied by Prism® software. […]

human DGAT1 = target: T2, human DGAT1 (Homo sapiens, UniProt O75907); assay: substrate concentration titration in TLC assay, DGAT1; assay type: biochemical; details: Michaelis Menton fit, duplicate
T2 construct: made in house; host or cells: Sf9 insect cells (baculovirus), used as membrane extracts
T2 sequence (O75907 1-488): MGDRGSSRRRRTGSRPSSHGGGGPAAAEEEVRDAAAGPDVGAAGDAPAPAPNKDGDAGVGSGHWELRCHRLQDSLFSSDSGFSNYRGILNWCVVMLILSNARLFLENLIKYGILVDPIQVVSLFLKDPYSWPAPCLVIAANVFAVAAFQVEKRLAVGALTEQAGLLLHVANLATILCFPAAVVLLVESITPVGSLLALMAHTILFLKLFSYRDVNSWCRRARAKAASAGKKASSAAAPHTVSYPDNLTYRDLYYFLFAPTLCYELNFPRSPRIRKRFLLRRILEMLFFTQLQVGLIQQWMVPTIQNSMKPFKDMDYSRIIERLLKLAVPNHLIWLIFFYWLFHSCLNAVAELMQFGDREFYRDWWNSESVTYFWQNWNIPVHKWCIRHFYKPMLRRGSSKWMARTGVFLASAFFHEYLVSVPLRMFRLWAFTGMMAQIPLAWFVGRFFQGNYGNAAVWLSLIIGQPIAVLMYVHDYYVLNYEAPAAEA
Description: as §1, §2, §3

Km with MOG relative to 1,2-sn-dioleoylglycerol (human MGAT3): significantly reduced
Vmax with MOG relative to 1,2-sn-dioleoylglycerol (human MGAT3): more than 50 fold
Km with MOG relative to 1,2-sn-dioleoylglycerol (human DGAT1): significantly reduced
Vmax with MOG relative to 1,2-sn-dioleoylglycerol (human DGAT1): more than 20 fold
Structure (SMILES): CCCCCCCC/C=C\CCCCCCCC(=O)OC(CO)CO [MOG, 2-monooleoylglycerol]
